Test results as given in patent US12473262B2, “Aryl hydrocarbon receptor activators” (Oregon State University, priority 2019, dated 2025).
Where two headings read alike, the source gives them in different places.

Tests used:
in vitro [1] = conditions: mouse, microsomes, pH 7.4
Experimental: (§2) The assessment of metabolic stability of testing compounds was performed using human, mouse, rat, dog and monkey liver microsomes (20 mg protein/ml). Each reaction mixture contained 42.5 μL of 0.1 M potassium phosphate buffer pH 7.4, containing respective LM protein (final concentration 0.5 mg/ml). 2.5 μL of the compound stock solution was added in it (1 μM final concentration). The reaction was initiated by the addition of 5 μL NADPH solution (final Concentration 1 mM). At different time points (0, 5, 15, and 30 minutes), samples were quenched with 200 μL of cold acetonitrile containing ISTD Propranolol. Samples were centrifuged at 3500 rpm for 20 mM at 4° C. Supernatant was subjected to LC-MS/MS analysis for quantification. Verapamil was used as a positive control.

[2] = rat, microsomes, 0.5 h, 1 μM, pH 7.4
in vitro [3] = conditions: human, microsomes, pH 7.4
Experimental: as §2

[4] = mouse, microsomes, 0.5 h, 1 μM, pH 7.4
Experimental: as §2

[5] = molecular target: aryl hydrocarbon receptor (AhR) (Mus musculus (Mouse), UniProt P30561); assay: AhR ligand screening: AhRE-luciferase reporter in transfected Hepa1 cells; format: cell-based; conditions: for Fold @ 1 nM: fold change of luciferase expression at 1 nM test compound relative to vehicle (0.1% DMSO); for Fold @ 100 nM: fold change of luciferase expression at 100 nM test compound relative to vehicle (0.1% DMSO); for Fold @ 10 uM: fold change of luciferase expression at 10 uM test compound relative to vehicle (0.1% DMSO); for Fold relative to benchmark @ 100 nM: luciferase expression at 100 nM test compound relative to 100 nM benchmark compound 11-cl-BBQ
Chain of aryl hydrocarbon receptor (AhR) (P30561 10-805): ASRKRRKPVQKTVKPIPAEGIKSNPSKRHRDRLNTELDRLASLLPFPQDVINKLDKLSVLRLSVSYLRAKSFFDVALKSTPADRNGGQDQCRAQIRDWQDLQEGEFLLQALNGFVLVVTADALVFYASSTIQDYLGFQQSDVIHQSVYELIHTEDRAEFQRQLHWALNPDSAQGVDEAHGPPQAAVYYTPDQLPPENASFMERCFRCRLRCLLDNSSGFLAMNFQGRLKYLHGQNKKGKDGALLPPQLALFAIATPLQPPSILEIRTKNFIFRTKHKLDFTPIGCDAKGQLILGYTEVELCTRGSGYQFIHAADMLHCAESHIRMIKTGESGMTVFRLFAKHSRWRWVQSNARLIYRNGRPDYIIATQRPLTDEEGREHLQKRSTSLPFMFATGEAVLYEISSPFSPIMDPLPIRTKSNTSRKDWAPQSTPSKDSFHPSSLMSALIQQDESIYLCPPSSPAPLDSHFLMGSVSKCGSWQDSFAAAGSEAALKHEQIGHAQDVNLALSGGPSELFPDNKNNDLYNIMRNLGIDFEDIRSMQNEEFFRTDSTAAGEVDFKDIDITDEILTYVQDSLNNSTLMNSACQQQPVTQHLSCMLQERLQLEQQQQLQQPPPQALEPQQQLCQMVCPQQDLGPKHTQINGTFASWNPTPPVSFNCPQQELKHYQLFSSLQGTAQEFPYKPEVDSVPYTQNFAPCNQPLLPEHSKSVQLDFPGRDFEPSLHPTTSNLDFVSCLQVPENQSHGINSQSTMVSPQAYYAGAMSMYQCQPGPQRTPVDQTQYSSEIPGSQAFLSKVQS
Chain of aryl hydrocarbon receptor (AhR) (P53762 whole entry partner): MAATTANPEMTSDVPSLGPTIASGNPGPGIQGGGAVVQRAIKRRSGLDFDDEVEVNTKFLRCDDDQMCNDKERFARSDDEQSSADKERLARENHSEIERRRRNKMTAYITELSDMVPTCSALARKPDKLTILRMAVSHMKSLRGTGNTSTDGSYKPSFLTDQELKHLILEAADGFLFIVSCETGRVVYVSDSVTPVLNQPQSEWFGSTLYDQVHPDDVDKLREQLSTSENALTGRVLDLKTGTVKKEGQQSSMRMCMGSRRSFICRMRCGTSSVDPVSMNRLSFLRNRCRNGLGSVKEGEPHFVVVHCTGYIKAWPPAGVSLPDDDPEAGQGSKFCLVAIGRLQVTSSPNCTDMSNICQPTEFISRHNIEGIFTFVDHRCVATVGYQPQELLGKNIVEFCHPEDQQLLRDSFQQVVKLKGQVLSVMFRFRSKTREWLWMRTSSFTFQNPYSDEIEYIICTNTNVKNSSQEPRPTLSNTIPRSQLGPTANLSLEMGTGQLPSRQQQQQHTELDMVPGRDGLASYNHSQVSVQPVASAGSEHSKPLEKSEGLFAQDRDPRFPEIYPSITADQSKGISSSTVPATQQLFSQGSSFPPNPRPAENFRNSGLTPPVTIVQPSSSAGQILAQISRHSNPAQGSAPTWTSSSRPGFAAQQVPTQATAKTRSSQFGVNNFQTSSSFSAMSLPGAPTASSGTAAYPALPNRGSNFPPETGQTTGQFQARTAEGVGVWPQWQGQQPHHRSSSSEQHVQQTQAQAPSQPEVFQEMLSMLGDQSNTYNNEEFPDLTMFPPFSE
Outline: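 Values are fold luciferase induction relative to vehicle (0.1% DMSO), read by luminometry of lysates from Hepa1 cells carrying an AhRE-driven luciferase reporter. Cells were seeded at 1×10^4 per well, grown overnight and treated with compound before lysis.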

in vitro [6] = conditions: rat, microsomes, pH 7.4
[7] = human, microsomes, 0.5 h, 1 μM, pH 7.4
Experimental: as §2

[8] = Liver microsomal stability, rat
[9] = Liver microsomal stability, mouse
[10] = In vivo PK study, intravenous and oral administration in male mice; design: species or system mouse; conditions: plasma; for C0: read-out: C0_Cmax
Experimental: In Vivo PK Study Pharmacokinetics of Exemplary Compounds 362 and 893 Following an Intravenous and Oral Administration in Male C57BL/6J Mice.
Male C57BL/6J mice, approximately 8-10 weeks old, were obtained from the vivarium of Fundación Ciencia & Vida Chile (Santiago, Chile). Dosing solution of Compound 362 for PO administration was formulated in a vehicle containing 40% DMSO, 20% Kolliphor EL, 40% Propylene Glycol at 0.8 mg/mL. Dosing solution of Compound 362 for IV administration was formulated in a vehicle containing 30% DMSO, 20% Kolliphor EL, 50% PBS at […].
Male […] mice, approximately 8-11 weeks old, 22-27 grams were obtained from the vivarium Fundación Ciencia & Vida Chile (Santiago, Chile). Animals were acclimated for a minimum period of 4 days upon arrival at the testing facility. Animals were weighed, identified by marking the tail with numbers using a non-toxic permanent marker and designated into the following treatment groups on the day of dosing:
Group 1 animals received an IV administration via caudal vein of 2 mg/kg PRXS0362 dosing solution.
Group 2 animals received a PO administration via feeding tubes (20 gauge) of 8 mg/kg PRXS0362 dosing solution.
Terminal whole blood was collected via cardiac puncture for group 1 at the following time points: 5, 10, 15, 30, 60, 120, 240, 360, and 480 minutes. Non-dosed mice were used to collect samples of zero time points. For the group 2 at the following time point: 15, 30, 60, 120, 240, 360, and 480 minutes.
Whole blood, approximately 300 μL per time point, was collected into microtainer tubes with EDTA (K2). Blood samples were centrifuged immediately at approximately 9,000 G at 4° C. for 5 minutes and plasma separated. Plasma samples were placed into individually labeled tubes and stored in a −80° C. freezer prior to LC/MS/MS analysis.
The whole brain was collected at each point only for both groups, for this the animals were euthanized with CO2, decapitated, the brain was extracted weighed, frozen in liquid nitrogen and stored at −80° C. prior to LC/MS/MS analysis.
Compound 893 was tested by the same protocol as above.

[11] = Liver microsomal stability, human
Experimental: as §2

CYP-2B6 = CYP-2B6 (Homo sapiens (Human), UniProt P20813); assay: CYP panel profile: P450 inhibition, CYP-2B6; format: in vitro ADME; conditions: human liver microsomes
Chain of CYP-2B6 (P20813 whole entry, canonical isoform): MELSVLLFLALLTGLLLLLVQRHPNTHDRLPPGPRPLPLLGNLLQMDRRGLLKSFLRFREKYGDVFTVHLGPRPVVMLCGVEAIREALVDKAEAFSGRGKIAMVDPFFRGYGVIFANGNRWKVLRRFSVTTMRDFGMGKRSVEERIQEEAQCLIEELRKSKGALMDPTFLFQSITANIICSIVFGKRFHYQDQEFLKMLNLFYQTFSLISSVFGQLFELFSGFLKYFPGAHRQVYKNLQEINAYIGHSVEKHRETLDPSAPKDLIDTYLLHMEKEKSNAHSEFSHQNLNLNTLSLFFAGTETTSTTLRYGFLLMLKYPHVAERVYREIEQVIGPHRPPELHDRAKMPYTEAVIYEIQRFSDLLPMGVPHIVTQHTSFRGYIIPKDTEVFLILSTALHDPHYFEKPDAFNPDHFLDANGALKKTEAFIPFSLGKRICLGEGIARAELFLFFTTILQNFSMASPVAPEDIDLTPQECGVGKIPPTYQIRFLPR
Outline: (§1)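 Human liver microsomes with isoform-specific substrate and test compound at 50 μM down to 0.02 μM final, pre-incubated 10 min, started with 1 mM NADPH at 37 °C. Quenched with cold acetonitrile plus internal standard; metabolite by LC-MS/MS.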

CYP-3A4 = CYP-3A4 (Homo sapiens (Human), UniProt P08684); assay: CYP panel profile: P450 inhibition, CYP-3A4; format: in vitro ADME; conditions: human liver microsomes
Outline: as §1

CYP-2D6 = CYP-2D6 (Homo sapiens (Human), UniProt P10635); assay: CYP panel profile: P450 inhibition, CYP-2D6; format: in vitro ADME; conditions: human liver microsomes
Chain of CYP-2D6 (P10635 whole entry): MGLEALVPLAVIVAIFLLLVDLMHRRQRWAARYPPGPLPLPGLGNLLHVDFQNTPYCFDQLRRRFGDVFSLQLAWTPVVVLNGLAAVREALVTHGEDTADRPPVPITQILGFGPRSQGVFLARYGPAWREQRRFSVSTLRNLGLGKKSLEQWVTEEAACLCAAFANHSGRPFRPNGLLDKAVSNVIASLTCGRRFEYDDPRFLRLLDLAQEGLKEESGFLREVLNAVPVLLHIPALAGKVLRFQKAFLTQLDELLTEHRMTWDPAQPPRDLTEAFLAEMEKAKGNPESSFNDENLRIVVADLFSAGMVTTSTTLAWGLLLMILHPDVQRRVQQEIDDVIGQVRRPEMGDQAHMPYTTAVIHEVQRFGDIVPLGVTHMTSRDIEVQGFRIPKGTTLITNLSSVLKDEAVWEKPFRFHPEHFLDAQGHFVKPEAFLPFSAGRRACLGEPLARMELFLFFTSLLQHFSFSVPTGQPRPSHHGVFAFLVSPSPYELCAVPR
Outline: as §1

CYP-2C19 = CYP-2C19 (Homo sapiens (Human), UniProt P33261); assay: CYP panel profile: P450 inhibition, CYP-2C19; format: in vitro ADME; conditions: human liver microsomes
Chain of CYP-2C19 (P33261 whole entry): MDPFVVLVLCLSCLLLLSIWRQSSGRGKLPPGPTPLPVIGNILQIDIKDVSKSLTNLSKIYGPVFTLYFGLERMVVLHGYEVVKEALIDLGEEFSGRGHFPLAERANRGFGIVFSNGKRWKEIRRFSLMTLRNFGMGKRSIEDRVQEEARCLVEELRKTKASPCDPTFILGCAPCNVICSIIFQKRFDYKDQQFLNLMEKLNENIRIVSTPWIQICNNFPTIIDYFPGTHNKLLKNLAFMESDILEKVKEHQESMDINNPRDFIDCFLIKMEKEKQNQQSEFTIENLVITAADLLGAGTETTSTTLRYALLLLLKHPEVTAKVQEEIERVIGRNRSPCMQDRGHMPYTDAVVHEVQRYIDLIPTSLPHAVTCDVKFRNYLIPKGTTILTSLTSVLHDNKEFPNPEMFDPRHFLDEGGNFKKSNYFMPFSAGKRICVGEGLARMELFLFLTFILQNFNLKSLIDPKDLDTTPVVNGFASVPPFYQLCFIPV
Outline: as §1

CYP-1A2 = CYP-1A2 (Homo sapiens (Human), UniProt P05177); assay: CYP panel profile: P450 inhibition, CYP-1A2; format: in vitro ADME; conditions: human liver microsomes; read-out: CYP-1A2 IC50
Chain of CYP-1A2 (P05177 whole entry): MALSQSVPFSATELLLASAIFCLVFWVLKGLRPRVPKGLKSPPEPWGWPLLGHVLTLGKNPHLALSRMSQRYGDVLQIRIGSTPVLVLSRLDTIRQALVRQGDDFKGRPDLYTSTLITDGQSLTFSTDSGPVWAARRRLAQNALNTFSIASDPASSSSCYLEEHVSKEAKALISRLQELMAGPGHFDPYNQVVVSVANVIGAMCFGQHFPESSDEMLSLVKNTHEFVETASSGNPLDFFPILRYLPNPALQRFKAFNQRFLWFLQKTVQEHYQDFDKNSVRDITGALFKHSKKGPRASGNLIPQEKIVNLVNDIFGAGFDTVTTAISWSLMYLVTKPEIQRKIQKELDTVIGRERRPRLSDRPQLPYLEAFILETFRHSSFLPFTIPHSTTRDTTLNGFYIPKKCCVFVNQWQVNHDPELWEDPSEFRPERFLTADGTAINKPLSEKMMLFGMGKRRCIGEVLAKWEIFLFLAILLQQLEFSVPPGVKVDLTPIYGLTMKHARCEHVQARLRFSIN
Outline: as §1

CYP-2C9 = CYP-2C9 (Homo sapiens (Human), UniProt P11712); assay: CYP panel profile: P450 inhibition, CYP-2C9; format: in vitro ADME; conditions: human liver microsomes
Chain of CYP-2C9 (P11712 whole entry): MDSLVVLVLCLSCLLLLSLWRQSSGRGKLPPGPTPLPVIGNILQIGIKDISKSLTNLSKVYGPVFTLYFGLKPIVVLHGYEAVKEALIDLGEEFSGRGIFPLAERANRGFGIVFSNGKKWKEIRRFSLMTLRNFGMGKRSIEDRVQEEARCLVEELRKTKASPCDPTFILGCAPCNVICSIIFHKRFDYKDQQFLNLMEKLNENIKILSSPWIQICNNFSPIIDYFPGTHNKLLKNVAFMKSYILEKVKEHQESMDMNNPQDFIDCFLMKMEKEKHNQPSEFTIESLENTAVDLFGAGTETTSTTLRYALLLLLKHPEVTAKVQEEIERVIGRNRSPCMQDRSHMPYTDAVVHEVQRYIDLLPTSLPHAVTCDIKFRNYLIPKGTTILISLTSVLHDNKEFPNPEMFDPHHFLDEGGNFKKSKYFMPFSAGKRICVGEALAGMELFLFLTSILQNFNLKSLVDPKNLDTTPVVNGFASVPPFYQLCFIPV
Outline: as §1

CYP-2C8 = CYP-2C8 (Homo sapiens (Human), UniProt P10632); assay: CYP panel profile: P450 inhibition, CYP-2C8; format: in vitro ADME; conditions: human liver microsomes
Chain of CYP-2C8 (P10632 whole entry): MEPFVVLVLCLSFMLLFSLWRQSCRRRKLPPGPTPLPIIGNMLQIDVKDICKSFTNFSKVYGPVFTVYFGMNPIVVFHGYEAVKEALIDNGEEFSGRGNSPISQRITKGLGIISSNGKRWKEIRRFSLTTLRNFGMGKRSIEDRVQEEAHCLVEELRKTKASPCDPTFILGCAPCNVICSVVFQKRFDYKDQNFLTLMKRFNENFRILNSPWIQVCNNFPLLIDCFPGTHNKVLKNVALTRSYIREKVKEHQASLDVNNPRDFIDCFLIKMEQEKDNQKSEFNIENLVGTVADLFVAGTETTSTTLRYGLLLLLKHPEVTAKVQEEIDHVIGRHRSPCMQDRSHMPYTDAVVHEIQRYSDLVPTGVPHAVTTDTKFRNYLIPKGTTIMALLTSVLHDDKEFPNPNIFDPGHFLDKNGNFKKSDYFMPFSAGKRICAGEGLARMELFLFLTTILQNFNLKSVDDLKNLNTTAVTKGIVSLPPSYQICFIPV
Outline: as §1

T1D = conditions: murine model; cited from earlier work
[12] = acute or chronic treatment of mice, therapeutic dose; cited from earlier work
GVHD = conditions: murine model; cited from earlier work
[13] = mouse, liver microsomes, pH 7.4
[14] = human, liver microsomes, pH 7.4

## O=C(c1cccc2ccccc12)c1c[nH]c2cc(Cl)c(Cl)cc12 [Compound 434]
In vitro [1]
  half-life at 1 μM: 10.7 min
  microsomal CLint at 1 μM: 129 µL/min/mg
[2]
  Rem @ RLM × 30 min: 41.6%
In vitro [3]
  half-life at 1 μM: 48.7 min
  microsomal CLint at 1 μM: 28.5 µL/min/mg
[4]
  Rem @ MLM × 30 min: 10.6%
[5]
  Fold @ 1 nM: 1 fold
  Fold @ 100 nM: 1 fold
  Fold @ 10 uM: 9 fold
  Fold relative to benchmark @ 100 nM: 0.03 fold
In vitro [6]
  half-life at 1 μM: 28 min
  microsomal CLint at 1 μM: 49.6 µL/min/mg
[7]
  Rem @ HLM × 30 min: 63.4%

## Clc1ccc2[nH]c(-c3cccc4ccccc34)cc2c1 [Compound 893, 5-chloro-2-(naphthalen-1-yl)-1H-indole]
[8]; rat liver microsomes, 30 min, 1 μM compound, 0.5 mg/ml protein
  Rem @ RLM × 30 min: 51.7%
[8]; rat, liver microsomes, pH 7.4
  half-life at 1 μM: 35.8 min
  microsomal CLint at 1 μM: 38.8 µL/min/mg
[9]; mouse liver microsomes, 30 min, 1 μM compound, 0.5 mg/ml protein
  Rem @ MLM × 30 min: 16.7%
[9]; [13]
  half-life at 1 μM: 12.2 min
  microsomal CLint at 1 μM: 114 µL/min/mg
[10]; IV 2 mg/Kg
  CL_CL/F: 4.218 L/[Kg*h]
  Vd_Vd/F: 8.777 L/kg
  thalf: 1.442 h
[10]; PO 8 mg/Kg
  CL_CL/F: 5.739 L/[Kg*h]
  Vd_Vd/F: 12.846 L/kg
  thalf: 1.551 h
[10]; mouse, IV 2 mg/Kg
  AUC(0-inf): 474 ng·h/mL
  AUC(0-t): 451 ng·h/mL
  MRT: 120 min
  C0: 174 ng/mL
[10]; mouse, PO 8 mg/Kg vs IV 2 mg/Kg
  bioavailability: 73.5%
[10]; mouse, PO 8 mg/Kg
  AUC(0-inf): 1390 ng·h/mL
  AUC(0-t): 1330 ng·h/mL
  MRT: 160 min
  Tmax: 60 min
  C0: 398 ng/mL
[11]; human liver microsomes, 30 min, 1 μM compound, 0.5 mg/ml protein
  Rem @ HLM × 30 min: 19.6%
[11]; [14]
  half-life at 1 μM: 14.1 min
  microsomal CLint at 1 μM: 98.5 µL/min/mg
CYP-2B6
  IC50: 8 µM
CYP-3A4
  IC50: 23.3 µM
CYP-2D6
  IC50: 31.7 µM
CYP-2C19
  IC50: 2.9 µM
CYP-1A2
  IC50: 0.5 µM
[5]
  Fold @ 1 nM: 1 fold
  Fold @ 100 nM: 49 fold
  Fold @ 10 uM: 49 fold
  Fold relative to benchmark @ 100 nM: 0.91 fold
CYP-2C9
  IC50: 7.2 µM
CYP-2C8
  IC50: 7.7 µM

## O=C(c1ccc2ccccc2c1)c1c[nH]c2ccc(Cl)cc12 [Compound 885]
In vitro [1]
  half-life at 1 μM: 27.5 min
  microsomal CLint at 1 μM: 50.4 µL/min/mg
[2]
  Rem @ RLM × 30 min: 50.2%
In vitro [3]
  half-life at 1 μM: 36.8 min
  microsomal CLint at 1 μM: 37.7 µL/min/mg
[4]
  Rem @ MLM × 30 min: 45.1%
[5]
  Fold @ 1 nM: 1 fold
  Fold @ 100 nM: 1 fold
  Fold @ 10 uM: 1 fold
  Fold relative to benchmark @ 100 nM: 0.02 fold
In vitro [6]
  half-life at 1 μM: 30.7 min
  microsomal CLint at 1 μM: 45.1 µL/min/mg
[7]
  Rem @ HLM × 30 min: 58.1%

## O=c1c2cccc3cccc(c32)c2nc3cc(Cl)ccc3n12 [Compound 11-Cl-BBQ, 11-chloro-7H-benzimidazo[2,1-a]benzo[de]-Iso-quinolin-7-one]
T1D
  development of T1D: suppress the development of T1D
[12]
  overt toxicity: no overt toxicity
GVHD
  development of GVHD: suppress the development of T1D and GVHD
